Data as given in EP0634173B1, “24-epi-1-alpha-hydroxyvitamin D2 for treating osteoporosis” (WISCONSIN ALUMNI RESEARCH FOUNDATION, priority 1993, dated 1995).
Read-outs that look alike come from different tables or passages of the source. Marks after values point to notes of the source that are not given here.

Key:
[1] = test system: human leukemia cells (HL-60 cells); conditions: cited from earlier work
[2] = test system: human leukemia cells (HL-60 cells); conditions: 4-day trial period, cited from earlier work
[3] = test system: human leukemia cells (HL-60 cells); conditions: 4-day trial period, cited from earlier work; remark: listed apart in the source
[4] = test system: human leukemia cells (HL-60 cells); experiment: HL-60 cell differentiation, text summary over both NBT-reduction and phagocytosis assays; format: cell-based; conditions: HL-60 cell differentiation activity
Experimental: The assays were conducted as described by Ostrem et al (J. Biol. Chem. 262, 14164-14171, 1987), and by DeLuca et al (U. S. Patent 4,717,721). […] Even at doses as low as 10^-8M, this compound produced approximately 64-67% differentiation in the 4-day trial period in both the NBT-reduction and the phagocytosis assay. […] Thus, 1α-hydroxy-24-epi-vitamin D2 has little or no activity in promoting differentiation of promyelocytes to monocytes.

[5] = test system: rats made osteoporotic by ovariectomy; experiment: Restoration of bone mass (femur ash) in oophorectomized rats; format: in vivo, rat; conditions: for restoration of bone mass: result in words, previously tested, compared with the compound of the present study; for Total Femur Ash (mg ± SEM) / Ash (% ± SEM): oophorectomized rats, 325 pmol/day for 20 days by Alzet osmotic minipump; for Ash (% ± SEM): femur
From the text: At 13 weeks, the animals were either sham-operated or oophorectomized. They continued on the same diet for an additional 16 weeks. Ouring the last 20 days, the animals received the indicated dose of either 1α-hydroxyvitamin D2 or 24-epi-1α-hydroxyvitamin D2, in propylene glycol, delivered each day by Alzet osmotic minipump for a period of 20 days. The animals were killed and their femurs were used to determine total bone ash and percent ash. There were 6 animals in each group and the data are expressed as average ± standard error of the mean. Oophorectomy results in a lack of estrogen reminiscent of the menopausal state.

vitamin D-deficient rat [6] = conditions: cited from earlier work; for Ca Transport S/M Ratio: 20 h prior to sacrifice, vitamin D-free, low calcium diet
vitamin D-deficient rat [7] = conditions: cited from earlier work; for Bone Mobilization Serum Ca: 20 h prior to sacrifice, vitamin D-free, low calcium diet; for activity in mobilizing calcium from bone: result in words, animals on a low calcium diet

## C=C1/C(=C\C=C2/CCC[C@]3(C)[C@@H]([C@H](C)/C=C/[C@@H](C)C(C)(C)O)CC[C@@H]23)C[C@@H](O)C[C@@H]1O [1α,25-Dihydroxy-24-epi-vitamin D2, 1α,25-dihydroxy-24-epi-vitamin D2]
[1]; 1-2 x 10^-8M
  differentiation: 40-50%
[1]; 5 x 10^-8M
  differentiation: > 60%
[1]; 10^-7M
  differentiation: 80%
[2]; 1 x 10^-7 M
  % Differentiation NBT Reduction: 80 ± 3%
[2]; 1 x 10^-8 M
  % Differentiation NBT Reduction: 39 ± 3%
[2]; 2 x 10^-8 M
  % Differentiation NBT Reduction: 48 ± 3%
[2]; 5 x 10^-8 M
  % Differentiation NBT Reduction: 64 ± 3%
[3]; 1 x 10^-7 M
  % Differentiation Phagocytosis: 81 ± 3%
[3]; 1 x 10^-8 M
  % Differentiation Phagocytosis: 40 ± 3%
[3]; 2 x 10^-8 M
  % Differentiation Phagocytosis: 49 ± 2%
[3]; 5 x 10^-8 M
  % Differentiation Phagocytosis: 62 ± 3%
[4]
  times less active than the 1α,25-dihydroxyvitamin D3 standard: about 5

## C=C1/C(=C\C=C2/CCC[C@]3(C)[C@@H]([C@H](C)CCCC(C)(C)O)CC[C@@H]23)C[C@@H](O)C[C@@H]1O [1α,25-Dihydroxy-vitamin D3, 1α,25-dihydroxyvitamin D3]
[1]; 10^-8M, 4-day trial period, both NBT-reduction and phagocytosis assay
  differentiation: 64-67%
[2]; 1 x 10^-7 M
  % Differentiation NBT Reduction: 87 ± 2%
[2]; 1 x 10^-8 M
  % Differentiation NBT Reduction: 64 ± 2%
[3]; 1 x 10^-7 M
  % Differentiation Phagocytosis: 89 ± 3%
[3]; 1 x 10^-8 M
  % Differentiation Phagocytosis: 67 ± 3%
[5]
  restoration of bone mass: restored some bone mass

## C=C1/C(=C\C=C2/CCC[C@]3(C)[C@@H]([C@H](C)/C=C/[C@@H](C)C(C)C)CC[C@@H]23)C[C@@H](O)C[C@@H]1O [1α-Hydroxy-24-epi-vitamin D2, 24-epi-1α-hydroxyvitamin D2]
Vitamin D-deficient rat [6]; 325 pmol
  Ca Transport S/M Ratio: 4.3 ± 0.42^a
Vitamin D-deficient rat [6]; 650 pmol
  Ca Transport S/M Ratio: 4.4 ± 0.70^a
Vitamin D-deficient rat [6]; result in words, data of Table 1
  activity in stimulating intestinal calcium transport: high activity
[1]; 1-2 x 10^-8M
  differentiation: does not elicit a significant differentiation response
[1]; 10^-7M
  differentiation: 16-20%
[2]; 1 x 10^-7 M
  % Differentiation NBT Reduction: 22 ± 2%
[2]; 1 x 10^-8 M
  % Differentiation NBT Reduction: 4 ± 2%
[2]; 2 x 10^-8 M
  % Differentiation NBT Reduction: 6 ± 2%
[2]; 5 x 10^-8 M
  % Differentiation NBT Reduction: 14 ± 2%
[3]; 1 x 10^-7 M
  % Differentiation Phagocytosis: 16 ± 2%
[3]; 1 x 10^-8 M
  % Differentiation Phagocytosis: 4 ± 2%
[3]; 2 x 10^-8 M
  % Differentiation Phagocytosis: 6 ± 3%
[3]; 5 x 10^-8 M
  % Differentiation Phagocytosis: 9 ± 1%
[5]
  Total Femur Ash (mg ± SEM): 400 mg
  Ash (% ± SEM): 60.5 ± 0.5%
[5]; listed as 24-epi-1α-OH-D2
  Total Femur Ash (mg ± SEM): 400 ± 16.4^d mg
Vitamin D-deficient rat [7]; 325 pmol
  Bone Mobilization Serum Ca: 3.9 ± 0.39^b mg %
Vitamin D-deficient rat [7]; 650 pmol
  Bone Mobilization Serum Ca: 4.1 ± 0.23^b mg %
Vitamin D-deficient rat [7]
  activity in mobilizing calcium from bone: no activity

## C=C1/C(=C\C=C2/CCC[C@]3(C)[C@@H]([C@H](C)/C=C/[C@H](C)C(C)C)CC[C@@H]23)C[C@@H](O)C[C@@H]1O [1α-Hydroxy-vitamin D2, 1α-hydroxyvitamin D2]
Vitamin D-deficient rat [6]; 325 pmol
  Ca Transport S/M Ratio: 5.4 ± 0.37^a
[5]
  Total Femur Ash (mg ± SEM): 377 mg
  Ash (% ± SEM): 58.6 ± 0.55%
[5]; listed as 1α-OH-D2
  Total Femur Ash (mg ± SEM): 377 ± 15.2^c mg
Vitamin D-deficient rat [7]; 325 pmol
  Bone Mobilization Serum Ca: 5.3 ± 0.15^a mg %
Vitamin D-deficient rat [7]
  activity in mobilizing calcium from bone: strongly active

## C=C1/C(=C\C=C2/CCC[C@]3(C)[C@@H]([C@H](C)CCCC(C)C)CC[C@@H]23)C[C@@H](O)C[C@@H]1O [1α-hydroxyvitamin D3]
[5]
  restoration of bone mass: restored some bone mass
